# Target: T1, hCRTH2 (Homo sapiens, UniProt Q9Y5Y4)
# T1 sequence (Q9Y5Y4 1-395): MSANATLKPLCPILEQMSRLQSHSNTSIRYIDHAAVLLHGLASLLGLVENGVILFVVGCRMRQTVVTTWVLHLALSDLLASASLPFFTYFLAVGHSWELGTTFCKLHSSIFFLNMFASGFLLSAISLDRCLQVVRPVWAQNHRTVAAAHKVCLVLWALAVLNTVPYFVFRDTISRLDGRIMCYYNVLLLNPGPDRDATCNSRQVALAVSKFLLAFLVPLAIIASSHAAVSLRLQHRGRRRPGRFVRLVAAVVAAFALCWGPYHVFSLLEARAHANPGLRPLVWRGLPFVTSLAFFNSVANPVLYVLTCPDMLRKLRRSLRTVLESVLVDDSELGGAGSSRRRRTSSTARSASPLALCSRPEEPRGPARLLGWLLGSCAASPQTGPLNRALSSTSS
# Assay: Radioligand binding assay ([3H]PGD2 competition)
# Experimental: Radioligand binding assay. […] Competing ligands were diluted in dimethylsulfoxide (Me2SO) that was kept constant at 1% (v/v) of the final incubation volume. The reaction was initiated by the addition of 8-20 μg of membrane protein prepared from a HEK-hCRTH2 cell line. Total and non-specific binding were determined in the absence and the presence of 10 μM PGD2, respectively. Under these conditions, specific binding (total minus non-specific) of the radioligand to the receptor reached equilibrium within 50 min and was stable up to 180 min. The reaction was routinely conducted for 60 min at room temperature and terminated by rapid filtration through prewetted Unifilters GF/C (Packard), using a Tomtec MachIII semi-automated harvester (for HEK-hCRTH2). The filters were then washed with 4 ml of the same buffer and residual radioligand bound to the filter was determined by liquid scintillation counting following equilibration in 25 μl Ultima Gold F™ (Unifilter) (Packard).
row,Ki,SMILES
1,≤ 5 nM,"CC(C(=O)N(C)[C@@H]1CCc2c(CC(=O)O)c3ccccc3n2C1)c1ccccc1 (stereo partly drawn) [Example 30, ((7R)-7-{methyl [2-phenylpropanoyl]amino}-6,7,8,9-tetrahydropyrido[1,2-a]indol-10-yl)acetic acid]"
2,≤ 5 nM,"CN(C(=O)C1(c2ccc(Cl)cc2)CCCC1)[C@@H]1CCc2c(CC(=O)O)c3ccccc3n2C1 [Example 20, {(7R)-7-[{[1-(4-chlorophenyl)cyclopentyl]carbonyl}(methyl)amino]-6,7,8,9-tetrahydropyrido[1,2-a]indol-10-yl}acetic acid]"
3,50 to 100 nM,"CN(C(=O)Cc1ccc(F)cc1Br)[C@@H]1CCc2c(CC(=O)O)c3ccccc3n2C1 [Example 34, {(7R)-7-[[(2-bromo-4-fluorophenyl)acetyl](methyl)amino]-6,7,8,9-tetrahydropyrido[1,2-a]indol-10-yl}acetic acid]"
4,5 to 10 nM,"CN(C(=O)CCc1ccccc1)[C@@H]1CCc2c(CC(=O)O)c3ccccc3n2C1 [Example 29, {(7R)-7-[methyl(3-phenylpropanoyl)amino]-6,7,8,9-tetrahydropyrido[1,2-a]indol-10-yl}acetic acid]"
5,5 to 10 nM,"CN(C(=O)C(C)(C)Cc1ccccc1)[C@@H]1CCc2c(CC(=O)O)c3ccccc3n2C1 [Example 26, {(7R)-7-[(2,2-dimethyl-3-phenylpropanoyl)(methyl)amino]-6,7,8,9-tetrahydropyrido[1,2-a]indol-10-yl}acetic acid]"
6,≤ 5 nM,"CN(C(=O)C1(c2ccc(F)cc2)CC1(C)C)[C@@H]1CCc2c(CC(=O)O)c3ccccc3n2C1 (stereo partly drawn) [Example 35, {(7R)-7-[{[1-(4-fluorophenyl)-2,2-dimethylcyclopropyl]carbonyl}(methyl)amino]-6,7,8,9-tetrahydropyrido[1,2-a]indol-10-yl}acetic acid]"
7,≤ 5 nM,"O=C(O)Cc1c2n(c3ccccc13)C[C@H](N(Cc1ccc(F)cc1)C(=O)Cc1ccc(F)cc1)CC2 [Example 3, ((7R)-7-{(4-fluorobenzyl)[(4-fluorophenyl)acetyl]amino}-6,7,8,9-tetrahydropyrido[1,2-a]indol-10-yl)acetic acid]"
8,10 to 50 nM,"COC(C(=O)N(C)[C@@H]1CCc2c(CC(=O)O)c3ccccc3n2C1)c1ccccc1 (stereo partly drawn) [Example 36, {(7R)-7-[[-2-methoxy-2-phenylacetyl](methyl)amino]-6,7,8,9-tetrahydropyrido[1,2-a]indol-10-yl}acetic acid]"
